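Grown in 96-well plates, cells were treated for 48 hours with each compound at five concentrations. Insufficient inhibition: endpoint recorded as highest concentration tested. The concentration for full growth arrest is given as TGI.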
Assays:
Assay in all cases: growth of human tumour cells (NCI), 48 h
MDA-MB-231 breast = test system: MDA-MB-231 breast
COLO 205 colon = test system: COLO 205 colon
M14 melanoma = test system: M14 melanoma
HT29 colon = test system: HT29 colon
NCI-H226 lung = test system: NCI-H226 lung
MDA-MB-435 = test system: MDA-MB-435
U251 CNS = test system: U251 CNS
SN12C renal = test system: SN12C renal
RPMI-8226 leukemia = test system: RPMI-8226 leukemia
UO-31 renal = test system: UO-31 renal
MALME-3M melanoma = test system: MALME-3M melanoma
HOP-92 NSCLC = test system: HOP-92 NSCLC
K-562 leukemia = test system: K-562 leukemia
IGROV1 ovarian = test system: IGROV1 ovarian
SR leukemia = test system: SR leukemia
SNB-75 CNS = test system: SNB-75 CNS
SK-MEL-2 melanoma = test system: SK-MEL-2 melanoma
HS 578T breast = test system: HS 578T breast
UACC-62 melanoma = test system: UACC-62 melanoma
SF-295 CNS = test system: SF-295 CNS
PC-3 prostate = test system: PC-3 prostate
CCRF-CEM leukemia = test system: CCRF-CEM leukemia
OVCAR-4 ovarian = test system: OVCAR-4 ovarian
SK-MEL-28 melanoma = test system: SK-MEL-28 melanoma
MCF7 breast = test system: MCF7 breast
TK-10 renal = test system: TK-10 renal
NCI/ADR-RES ovarian = test system: NCI/ADR-RES ovarian
EKVX NSCLC = test system: EKVX NSCLC
ACHN renal = test system: ACHN renal
HOP-62 NSCLC = test system: HOP-62 NSCLC
A498 renal = test system: A498 renal
OVCAR-5 ovarian = test system: OVCAR-5 ovarian
LOX IMVI melanoma = test system: LOX IMVI melanoma
SK-OV-3 ovarian = test system: SK-OV-3 ovarian
SF-268 CNS = test system: SF-268 CNS
OVCAR-8 ovarian = test system: OVCAR-8 ovarian
NCI-H522 lung = test system: NCI-H522 lung
OVCAR-3 ovarian = test system: OVCAR-3 ovarian
HCT-116 colon = test system: HCT-116 colon
SNB-19 CNS = test system: SNB-19 CNS
SW-620 colon = test system: SW-620 colon
MDA-N = test system: MDA-N
DU-145 prostate = test system: DU-145 prostate
NCI-H23 lung = test system: NCI-H23 lung
786-0 renal = test system: 786-0 renal
SK-MEL-5 melanoma = test system: SK-MEL-5 melanoma
KM12 colon = test system: KM12 colon
A549 NSCLC = test system: A549 NSCLC
MOLT-4 leukemia = test system: MOLT-4 leukemia
HCT-15 colon = test system: HCT-15 colon
UACC-257 melanoma = test system: UACC-257 melanoma
NCI-H460 lung = test system: NCI-H460 lung

`CSC1=N/C(=C\c2ccccc2)C(=O)N1CN1CCCCC1` was tested, and the TGI (MDA-MB-231 breast) was greater than 100 µM, the TGI (COLO 205 colon) was greater than 100 µM and the TGI (M14 melanoma) was greater than 100 µM. It also gave a TGI (HT29 colon) of 90.7 µM, a TGI (NCI-H226 lung) greater than 100 µM and a TGI (MDA-MB-435) greater than 100 µM. For the same molecule, the TGI (U251 CNS) was greater than 100 µM, the TGI (SN12C renal) was greater than 100 µM and the TGI (RPMI-8226 leukemia) was greater than 100 µM. The TGI (UO-31 renal) was greater than 100 µM, the TGI (MALME-3M melanoma) was greater than 100 µM and the TGI (HOP-92 NSCLC) was greater than 100 µM. For the same molecule, the TGI (K-562 leukemia) was greater than 100 µM, the TGI (IGROV1 ovarian) was greater than 100 µM and the TGI (SR leukemia) was greater than 100 µM. The TGI (SNB-75 CNS) was greater than 100 µM, the TGI (SK-MEL-2 melanoma) was greater than 100 µM and the TGI (HS 578T breast) was greater than 100 µM. For the same molecule, the TGI (UACC-62 melanoma) was greater than 100 µM, the TGI (SF-295 CNS) was greater than 100 µM and the TGI (PC-3 prostate) was greater than 100 µM. It also gave a TGI (CCRF-CEM leukemia) greater than 100 µM, a TGI (OVCAR-4 ovarian) of 56.4 µM and a TGI (SK-MEL-28 melanoma) greater than 100 µM. The TGI (MCF7 breast) was greater than 100 µM, the TGI (TK-10 renal) was greater than 100 µM and the TGI (NCI/ADR-RES ovarian) was greater than 100 µM. For the same molecule, the TGI (EKVX NSCLC) was greater than 100 µM, the TGI (ACHN renal) was greater than 100 µM and the TGI (HOP-62 NSCLC) was greater than 100 µM. The TGI (A498 renal) was greater than 100 µM, the TGI (OVCAR-5 ovarian) was greater than 100 µM and the TGI (LOX IMVI melanoma) was greater than 100 µM. It also gave a TGI (SK-OV-3 ovarian) greater than 100 µM, a TGI (SF-268 CNS) greater than 100 µM and a TGI (OVCAR-8 ovarian) greater than 100 µM. For the same molecule, the TGI (NCI-H522 lung) was greater than 100 µM, the TGI (OVCAR-3 ovarian) was greater than 100 µM and the TGI (HCT-116 colon) was greater than 100 µM. It also gave a TGI (SNB-19 CNS) greater than 100 µM, a TGI (SW-620 colon) greater than 100 µM and a TGI (MDA-N) greater than 100 µM. It also gave a TGI (DU-145 prostate) greater than 100 µM, a TGI (NCI-H23 lung) greater than 100 µM and a TGI (786-0 renal) greater than 100 µM. For the same molecule, the TGI (SK-MEL-5 melanoma) was greater than 100 µM, the TGI (KM12 colon) was greater than 100 µM and the TGI (A549 NSCLC) was greater than 100 µM. The TGI (MOLT-4 leukemia) was greater than 100 µM.
With `CC(C)(C)[Si](C)(C)OCC1OC(n2cc(I)c(N)nc2=O)C(O[Si](C)(C)C(C)(C)C)C1O[Si](C)(C)C(C)(C)C` (stereo not given) the TGI (MDA-MB-231 breast) was 31.7 µM, the TGI (COLO 205 colon) was 36.3 µM and the TGI (M14 melanoma) was 16.9 µM. For the same molecule, the TGI (HT29 colon) was 20.3 µM, the TGI (SN12C renal) was 26.6 µM and the TGI (HCT-15 colon) was 39.9 µM. It also gave a TGI (MALME-3M melanoma) of 34.6 µM, a TGI (HOP-92 NSCLC) of 37.1 µM and a TGI (IGROV1 ovarian) of 20.6 µM. For the same molecule, the TGI (SR leukemia) was 81.7 µM, the TGI (SNB-75 CNS) was 28 µM and the TGI (SK-MEL-2 melanoma) was 25.7 µM. It also gave a TGI (HS 578T breast) of 36.6 µM, a TGI (UACC-62 melanoma) of 23.7 µM and a TGI (SF-295 CNS) of 11.2 µM. The TGI (UACC-257 melanoma) was 26.7 µM, the TGI (PC-3 prostate) was 25 µM and the TGI (NCI-H460 lung) was 22 µM. It also gave a TGI (NCI/ADR-RES ovarian) greater than 100 µM, a TGI (EKVX NSCLC) of 38.4 µM and a TGI (ACHN renal) of 22 µM. For the same molecule, the TGI (HOP-62 NSCLC) was 27.6 µM, the TGI (LOX IMVI melanoma) was greater than 100 µM and the TGI (SK-OV-3 ovarian) was 32.8 µM. It also gave a TGI (SF-268 CNS) of 28.8 µM, a TGI (OVCAR-8 ovarian) of 30.6 µM and a TGI (NCI-H522 lung) of 16.5 µM. The TGI (OVCAR-3 ovarian) was 24 µM, the TGI (HCT-116 colon) was 24 µM and the TGI (SW-620 colon) was greater than 100 µM. It also gave a TGI (MDA-N) of 26.9 µM, a TGI (DU-145 prostate) of 28.6 µM and a TGI (786-0 renal) of 9.09 µM. The TGI (SK-MEL-5 melanoma) was 23.2 µM, the TGI (A549 NSCLC) was 20.8 µM and the TGI (MOLT-4 leukemia) was 10.6 µM.

From PubChem BioAssay (NCI)
